Here are results for 13 compounds from patent publication US6911454B1, “Method for potentiating primary drugs in treating multidrug resistant disease” (priority 1989, dated 2005).

Read-outs that look alike come from different tables or passages of the source.

Assay [1] relates to CQ-sensitive (FCMSU1/Sudan) strain of P. falciparum. The assay can be described thus: 3H-adenosine incorporation, chloroquine-sensitive P. falciparum. It counts as cell-based. The protocol: (§1) Chloroquine and qinghaosu are commonly used antimalarial drugs.
(§2) The dose (IC50) of each drug or each drug combination required to effect a 50% inhibition in the malarial activity of each strain was determined by establishing a dose response curve for each.
(§3) FCMSU1/Sudan strain and cloned Indochina (W-2) strain of P. falciparum were used. […] The two strains of the parasite were cultured according to the candle jar method of Trager and Jensen, Science, Vol. 193, pages 673-675 (1976). In a given experiment, four-day-old Petri dish cultures (approximately 10% parasitemia) were diluted with medium containing an amount of noninfected type A human erythrocytes to obtain a culture with a final hematocrit of 1.5% and parasitemia of 0.5-1.0%. The resulting culture was ready for addition to microtitration plates with ninety-six flat-bottom wells.
(§4) The testing procedure used was similar to that described by Desjardins et al. in “Antimicrobial Agents and Chemotherapy,” Vol. 16, pages 710-718 (1979). […] 25 microliters radioactive (0.5 microCi) [2,8-^3H] adenosine. The microtitration plates were incubated in a candle jar for an additional 18 hours, at 37° C.
(§5) As the malaria parasite grows ^3H-adenosine is metabolized and incorporates into polymeric RNA and DNA. The labeled polymers are trapped on glass fiber filters and unincorporated material is washed away. In the absence of drug there is 100% incorporation of the labeled material. When drugs interfere (directly or indirectly), an inhibitory dose of 50% (IC50) can be calculated. The experiments were repeated three times except where noted. Statistical analysis was done using Student's T-test for significance. Van Kyke et al. “Exp. Parasitol,” Vol. 64, pages 418-423 (1987).
(§6) The test procedure was basically the same as outlined above.

For assay [2], the system named is CQ-resistant (W-2) strain of P. falciparum. The assay can be described thus: 3H-adenosine incorporation, chloroquine-resistant P. falciparum. The assay is classed as cell-based. Conditions: for Ratio (S/R): IC50 against sensitive strain divided by IC50 for resistant strain. The protocol:
as §1, §2, §3, §4, §5, §6

The mark [3] stands for this setting: Table VII, chloroquine-sensitive strain, drug alone, read-out: IC50 S.
Setting [4] is: Table VII, chloroquine-resistant strain, drug alone, read-out: IC50 R.
[5] abbreviates: Plasmodium falciparum, read-out: IC50 S.
Where [6] appears, read: Plasmodium falciparum, read-out: IC50 R.
[7] abbreviates: Plasmodium falciparum, read-out: IC50 DRUG COMBINATION TT(1.0 uM) CQ(0.3 uM).
Where [8] appears, read: Plasmodium falciparum, read-out: IC50 DRUG COMBINATION TT(2.0 uM) CQ(0.2 uM).
Where [9] appears, read: Plasmodium falciparum, read-out: IC50 DRUG COMBINATION TT(3.0 uM) CQ(0.1 uM).
[10] abbreviates: Plasmodium falciparum, read-out: IC50 SINGLE DRUG.

Consider `COc1ccc2cc1Oc1ccc(cc1)C[C@H]1c3cc(c(OC)cc3CCN1C)Oc1c(OC)c(OC)c(OC)c3c1[C@H](C2)N(C)CC3` [HE, hernandezine], for which the IC50 – broadly, the midpoint of a concentration-inhibition curve – in assay [1] (setting [3]) came to 370 nM; in assay [2] (setting [4]), 130 nM. Further, in assay [2], the “Ratio (S/R)” value is given as 2.8.
`COc1ccc2cc1Oc1ccc(cc1)C[C@@H]1c3cc(c(OC)cc3CCN1C)Oc1c(OC)c(OC)cc3c1[C@@H](C2)N(C)CC3` [PH, phacanthine]: the values for the IC50 in assay [1] (setting [3]) and in assay [2] (setting [4]) were 600 nM and 500 nM, respectively.
Turning to `COc1cc(C[C@H]2c3cc(OC)c(OC)cc3CCN2C)c(Oc2cc3c(cc2OC)-c2c(OC)c(OC)cc4c2[C@H](C3)N(C)CC4)cc1OC` [TH, thalicarpine], the IC50 in assay [1] (Plasmodium falciparum, Table VII, chloroquine-sensitive strain, drug alone, read-out: IC50 S) was 1700 nM; in assay [2] (Plasmodium falciparum, Table VII, chloroquine-resistant strain, drug alone, read-out: IC50 R) it was 1300 nM. Besides, the “Ratio (S/R)” value in assay [2] turned out to be 1.3.
In the case of `COc1ccc2cc1Oc1ccc(cc1)C[C@H]1c3c(cc4c(c3Oc3cc5c(cc3OC)CCN(C)[C@@H]5C2)OCO4)CCN1C` [CE, cepharanthine], the results for the IC50 in assay [1] (setting [5]) and in assay [2] (setting [6]) were 1000 nM and 940 nM, respectively. Further, the “Ratio (S/R)” value in assay [2] was found to be 1.1.
Consider `COc1ccc2cc1Oc1ccc(cc1)C[C@@H]1c3cc(c(OC)cc3CCN1C)Oc1c(OC)c(OC)cc3c1[C@H](C2)N(C)CC3` [IT, isotetrandrine], for which the IC50 in assay [1] (setting [3]) was 480 nM; in assay [2] (setting [4]), 140 nM.
Turning to `COc1cc(C[C@H]2c3cc(OC)c(OC)c(OC)c3CCN2C)c(Oc2cc3c(cc2OC)-c2c(OC)c(OC)c(OC)c4c2[C@H](C3)N(C)CC4)cc1OC` [ME, methoxadiantifoline], the IC50 in assay [1] (setting [5]) came out at 5300 nM; in assay [2] (setting [6]) it was 970 nM. For the same compound, the “Ratio (S/R)” value in assay [2] is on record as 5.5. In addition, in assay [2] (conclusion from Table VII), the “effectiveness against resistant versus sensitive malarial strain” value is on record as “substantially more effective against the chloroquine resistant malarial strain than against the chloroquine sensitive malarial strain”.
With `COc1cc2c3cc1Oc1c(OC)c(OC)cc4c1[C@@H](Cc1ccc(O)c(c1)Oc1ccc(cc1)C[C@H]3N(C)CC2)N(C)CC4` [PY, pycnamine], the IC50 in assay [1] (setting [3]) was 380 nM; in assay [2] (setting [4]) it was 420 nM. For the same compound, in assay [2], the “Ratio (S/R)” value worked out at 0.9.
Regarding `CCN(CC)CCCC(C)Nc1ccnc2cc(Cl)ccc12` (stereo not shown) [CQ, chloroquine], the IC50 in assay [1] (setting [7]) came out at 16.5 ± 2.1 nM; in assay [1] (setting [8]), 11.4 ± 2.3 nM; in assay [1] (setting [9]) it was 7.4 ± 1.3 nM; in assay [1] (setting [10]), 26.7 ± 3.8 nM; in assay [2] (setting [7]) it was 23.8 ± 4.1 nM; in assay [2] (setting [8]), 8 ± 1.6 nM. Also, the IC50 worked out at 4.2 ± 0.3 nM in assay [2] (setting [9]) and 186 ± 4.9 nM in assay [2] (setting [10]). For the same compound, the “lowering of the IC50 of chloroquine” value in assay [2] (3.0 micromolar d-tetrandrine added to 0.1 micromolar chloroquine) amounted to 43 Fold.
With `COc1ccc2cc1Oc1ccc(cc1)C[C@H]1c3cc(c(OC)cc3CCN1C)Oc1c(O)c(OC)cc3c1[C@H](C2)N(C)CC3` [TA, fangchinoline], the values for the IC50 in assay [1] (setting [3]) and in assay [2] (setting [4]) were 260 nM and 220 nM, respectively. Moreover, in assay [2], the “Ratio (S/R)” value was 1.2.
Regarding `C[C@@H]1CC[C@H]2[C@@H](C)C(=O)O[C@@H]3O[C@@]4(C)CC[C@@H]1[C@]32OO4` [QHS, qinghaosu], the IC50 was determined as 11.4 ± 0.6 nM in assay [1] (S STRAIN, TT/QHS 10:1, mean ± S.D, read-out: IC50 DRUG COMBINATION TT(2.0 uM) QHS(0.2 uM)); 36.7 ± 4.7 nM in assay [1] (Table IV, S STRAIN, mean ± S.D, read-out: IC50 SINGLE DRUG); 21.6 ± 2.7 nM in assay [1] (read-out: IC50 DRUG COMBINATION TT(1.0 uM) QHS(0.3 uM), S STRAIN, TT/QHS 10:3, mean ± S.D); 7.3 ± 1.2 nM in assay [1] (read-out: IC50 DRUG COMBINATION TT(3.0 uM) QHS(0.1 uM), S STRAIN, TT/QHS 30:1, mean ± S.D); 7.2 ± 1.4 nM in assay [2] (R STRAIN, TT/QHS 10:1, mean ± S.D, read-out: IC50 DRUG COMBINATION TT(2.0 uM) QHS(0.2 uM)); 47.8 ± 14.5 nM in assay [2] (Table IV, R STRAIN, mean ± S.D, read-out: IC50 SINGLE DRUG). In addition, the IC50 in assay [2] (read-out: IC50 DRUG COMBINATION TT(1.0 uM) QHS(0.3 uM), R STRAIN, TT/QHS 10:3, mean ± S.D) stood at 17.9 ± 4.1 nM; in assay [2] (read-out: IC50 DRUG COMBINATION TT(3.0 uM) QHS(0.1 uM), R STRAIN, TT/QHS 30:1, mean ± S.D), 4.6 ± 1.4 nM.
With cycleanine, the values for the IC50 in assay [1] (setting [3]) and in assay [2] (setting [4]) were 3200 nM and 4200 nM, respectively. Besides, the “Ratio (S/R)” value in assay [2] is reported as 0.8.
For `COc1cc2c3cc1Oc1c(O)c(OC)cc4c1[C@@H](Cc1ccc(O)c(c1)Oc1ccc(cc1)C[C@@H]3N(C)CC2)N(C)CC4` [OB, obamegine] the same measures were 660 nM, 480 nM and 1.5.
In the case of `COc1cc2c3cc1Oc1c(OC)c(OC)cc4c1[C@@H](Cc1ccc(O)c(c1)Oc1ccc(cc1)C[C@@H]3N(C)CC2)N(C)CC4` [BB, berbamine], the IC50 was found to be 460 nM in assay [1] (setting [3]) and 190 nM in assay [2] (setting [4]). Further, the “Ratio (S/R)” value in assay [2] is 2.7.
